Results: patent publication US12552772B2, “2-pyrazole anilines and related analogs for inhibiting YAP/TAZ-TEAD” (KATHOLIEKE UNIVERSITEIT LEUVEN, priority 2021, dated 2026)

Columns and labels:
Assay type in all cases: cell-based
NCI-H2052 = experiment: Mesothelioma cell line proliferation assay (ATPlite), NCI-H2052; details: NCI-H2052 cells, 6 days, ATPlite cell viability
Procedure: (§1) Mesothelioma cell lines, NCI-H226 and NCI-H2052 (all sourced from the ATCC cell culture collection) are plated in 96-well plates (Corning® 96 Well White Polystyrene Microplate clear flat bottom, white polystyrene (TC-Treated)), at 1500 cells/well in full medium (RPMI 1640 ATCC modification with L-glutamine, HEPES, Phenol Red, Sodium Pyruvate, High glucose, Low sodium bicarbonate and 10% fetal bovine serum). Cells are incubated overnight at 37° C. in an incubator with 5% CO2. Then compounds, dissolved in DMSO, are added in dose-response. Cells are incubated with compound dilutions for another 6 days at 37° C. in an incubator with 5% CO2. Cell viability is quantitated using the ATPlite kit (Perkin-Elmer) and the luminescence is read-out using an Envision instrument (Perkin-Elmer). The amount of relative light units produced using the ATPlite kit is used to calculated percent of inhibition.
(§2) The activities of example compounds tested are depicted in the table below. The activity ranges A, B and C refer to EC50 values in the mesothelioma cell line proliferation assay as described as follows: “A”: EC50<1 μM; “B”: 1 μM s EC50≤10 μM and “C”: EC50>10 μM. NT: not tested.

[1] = tested on: YAP/TAZ-TEAD transcription; experiment: Reporter gene assay for measuring the inhibition of YAP/TAZ-TEAD transcription (TEAD-responsive element luciferase reporter in Hek293T cells); details: Homo sapiens, HEK-293T, 24 hours incubation
How it was run: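 Percent inhibition, scaled between vehicle (0%) and a positive control inhibitor (100%), came from SteadyLite luciferase signal after 24 h compound exposure at 37 °C/5% CO2. Cells: Hek293T transiently carrying a TEAD-responsive luciferase reporter; EC50 derived.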

NCI-H226 = experiment: Mesothelioma cell line proliferation assay (ATPlite), NCI-H226; details: Homo sapiens, 144 h; NCI-H226 cells, 6 days, ATPlite cell viability
Procedure: as §1, §2

Row | EC50 (NCI-H2052; Homo sapiens, NCI-H2052, 144 h) [nM] | EC50 [1] [nM] | EC50 (NCI-H226) [nM] | EC50 (NCI-H2052) [nM] | SMILES
1 | < 1000 | < 1000 | < 1000 |  | C=CC(=O)N1CCC(c2ccc(-c3ccc(F)cc3)cc2-c2ccn(C)n2)C1 (centres unmarked) [Cpd. No. 258, 1-(3-(4′-fluoro-3-(1-methyl-1H-pyrazol-3-yl)-[1,1′-biphenyl]-4-yl)pyrrolidin-1-yl)prop-2-en-1-one]
2 |  | < 1000 | < 1000 | 1000 to 10000 | C=CC(=O)N1CCC(c2ccc(-c3ccc(F)cc3)cc2-c2ccn(C(F)F)n2)C1 (centres unmarked) [Cpd. No. 261, 1-(3-(3-(1-(difluoromethyl)-1H-pyrazol-3-yl)-4′-fluoro-[1,1′-biphenyl]-4-yl)pyrrolidin-1-yl)prop-2-en-1-one]
3 |  | 1000 to 20000 | < 1000 |  | C=CC(=O)NCCNc1ccc(-c2ccccc2)cc1-c1ccn(Cc2cccnc2)n1 [compound 075, N-(2-((3-(1-(pyridin-3-ylmethyl)-1H-pyrazol-3-yl)-[1,1′-biphenyl]-4-yl)amino)ethyl)acrylamide]
4 |  | < 1000 | > 10000 |  | CNS(=O)(=O)CCNc1ccc(-c2cccc(F)c2)cc1-c1ccn(Cc2cccnc2)n1 [compound 088]
5 |  | < 1000 | 1000 to 10000 |  | CNS(=O)(=O)CCNc1ccc(-c2ccc(Cl)cc2)cc1-c1ccn(C)n1 [compound 121, 2-((4′-chloro-3-(1-methyl-1H-pyrazol-3-yl)-[1,1′-biphenyl]-4-yl)amino)-N-methylethane-1-sulfonamide]
6 |  | < 1000 | < 1000 |  | C=CC(=O)NCc1ccc(-c2ccccc2)cc1-c1ccn(C)n1 [compound 135, N-((3-(1-methyl-1H-pyrazol-3-yl)-[1,1′-biphenyl]-4-yl)methyl)acrylamide]

Further lines, the molecule ahead of its results:

Row | SMILES | EC50 (NCI-H2052; Homo sapiens, NCI-H2052, 144 h) [nM] | EC50 [1] [nM] | EC50 (NCI-H226) [nM] | EC50 (NCI-H2052) [nM]
7 | C=CC(=O)NCc1cnc(C2CCC(F)(F)CC2)cc1-c1ccn(C(F)F)n1 [Cpd. No. 223, N-((6-(4,4-difluorocyclohexyl)-4-(1-(difluoromethyl)-1H-pyrazol-3-yl)pyridin-3-yl)methyl)acrylamide] | 1000 to 10000 | < 1000 | < 1000 | 
8 | C=CC(=O)NCc1cc(-c2ccc(F)cc2)cc(-c2ccn(C(F)F)n2)n1 [Cpd. No. 225, N-((6-(1-(difluoromethyl)-1H-pyrazol-3-yl)-4-(4-fluorophenyl)pyridin-2-yl)methyl)acrylamide] | 1000 to 10000 | < 1000 | < 1000 | 
9 | C=CC(=O)NCc1cc(C2CCC(F)(F)CC2)cc(-c2ccn(C(F)F)n2)n1 [Cpd. No. 228, N-((4-(4,4-difluorocyclohexyl)-6-(1-(difluoromethyl)-1H-pyrazol-3-yl)pyridin-2-yl)methyl)acrylamide] | > 10000 | < 1000 | < 1000 | 
10 | C=CC(=O)NCc1cnc(-c2ccc(F)cc2)cc1-c1cc2n(n1)CCCC2 [Cpd. No. 231, N-((6-(4-fluorophenyl)-4-(4,5,6,7-tetrahydropyrazolo[1,5-a]pyridin-2-yl)pyridin-3-yl)methyl)acrylamide] | > 10000 | < 1000 | < 1000 | 
11 | C=CC(=O)NCc1cnc(-c2ccc(F)cc2)cc1-n1nnc(C)n1 [Cpd. No. 249, N-((6-(4-fluorophenyl)-4-(5-methyl-2H-tetrazol-2-yl)pyridin-3-yl)methyl)acrylamide] | 1000 to 10000 | < 1000 | < 1000 | 
12 | C=CC(=O)NCc1cnc(-c2ccc(F)cc2)nc1-c1ccn(C)n1 [Cpd. No. 253, N-((2-(4-fluorophenyl)-4-(1-methyl-1H-pyrazol-3-yl)pyrimidin-5-yl)methyl)acrylamide] | < 1000 | < 1000 | < 1000 | 
13 | C=CC(=O)NCc1cc(-c2ccc(F)cc2)nc(-c2ccn(C(F)F)n2)n1 [Cpd. No. 255, N-((2-(1-(difluoromethyl)-1H-pyrazol-3-yl)-6-(4-fluorophenyl)pyrimidin-4-yl)methyl)acrylamide] | 1000 to 10000 | < 1000 | < 1000 | 
